Source: ChEMBL document CHEMBL3885861, “Open TG-GATES”

Organism: Rattus norvegicus
Test: Open TG-GATES - Regimen: Daily Repeat
Format: toxicity, organism-based, Sprague-Dawley
Set-up: regimen Daily Repeat, gender Male, age 6 weeks
Settings: in vivo, po, 100 mg/kg, route gavage, dose level Middle; for APTT / Bas / Eos / Fbg / Hb / Ht / Lym / MCH / MCHC / MCV / Mono / Neu / PT / Plat / RBC / Ret / WBC: tissue Blood; for KIDNEY_L / KIDNEY_R / KIDNEY_TOTAL: tissue Kidney; for LIVER: tissue Liver; for A/G / ALP / ALT / AST / BUN / CRE / Ca / Cl / DBIL / GLC / IP / K / LDH / Na / PL / RALB / TBIL / TC / TG / TP / gamma-GTP: tissue Plasma

With `NNC(=O)c1ccncc1` [ISONIAZID] the TERMINAL_BW (72 h, time 3 day) was 217.2 g, the APTT (72 h, time 3 day) was 15.8 s and the Bas (72 h, time 3 day) was 0%. For the same molecule, the Eos (72 h, time 3 day) was 0.6%, the Fbg (72 h, time 3 day) was 245.2 mg/dL and the Hb (72 h, time 3 day) was 13.4 g/dL. The Ht (72 h, time 3 day) was 40.2%, the Lym (72 h, time 3 day) was 82.2% and the MCH (72 h, time 3 day) was 21.8 pg. The MCHC (72 h, time 3 day) was 33.4%, the MCV (72 h, time 3 day) was 65.2 fL and the Mono (72 h, time 3 day) was 5%. The Neu (72 h, time 3 day) was 12.2%, the PT (72 h, time 3 day) was 12.1 s and the Plat (72 h, time 3 day) was 115.4 x10_4/uL. It also gave an RBC (72 h, time 3 day) of 616.6 x10_4/ul, a Ret (72 h, time 3 day) of 7.3% and a WBC (72 h, time 3 day) of 87 x10_2/uL. For the same molecule, the KIDNEY_L (72 h, time 3 day) was 1.1 g, the KIDNEY_R (72 h, time 3 day) was 1.1 g and the KIDNEY_TOTAL (72 h, time 3 day) was 2.1 g. It also gave an LIVER (72 h, time 3 day) of 11.5 g, an A/G (72 h, time 3 day) of 1.7 and an ALP (72 h, time 3 day) of 962 IU/L. It also gave an ALT (72 h, time 3 day) of 18.6 IU/L, an AST (72 h, time 3 day) of 55 IU/L and a BUN (72 h, time 3 day) of 17.2 mg/dL. The CRE (72 h, time 3 day) was 0.5 mg/dL, the Ca (72 h, time 3 day) was 10.9 mg/dL and the Cl (72 h, time 3 day) was 103.4 meq/L. It also gave a DBIL (72 h, time 3 day) of 0.014 mg/dL, a GLC (72 h, time 3 day) of 204.2 mg/dL and an IP (72 h, time 3 day) of 8.6 mg/dL. For the same molecule, the K (72 h, time 3 day) was 5 meq/L, the LDH (72 h, time 3 day) was 93.4 IU/L and the Na (72 h, time 3 day) was 140.6 meq/L. It also gave a PL (72 h, time 3 day) of 158.6 mg/dL, an RALB (72 h, time 3 day) of 3.7 g/dL and a TBIL (72 h, time 3 day) of 0.3 mg/dL. The TC (72 h, time 3 day) was 81.4 mg/dL, the TG (72 h, time 3 day) was 104.6 mg/dL and the TP (72 h, time 3 day) was 6 g/dL. The gamma-GTP (72 h, time 3 day) was 1 IU/L, the TERMINAL_BW ([…], time 7 day) was 244.8 g and the TERMINAL_BW ([…], time 14 day) was 283.5 g. It also gave a TERMINAL_BW ([…], time 28 day) of 361.7 g, an APTT ([…], time 7 day) of 16.2 s and a Bas ([…], time 7 day) of 0%. For the same molecule, the Eos ([…], time 7 day) was 1%, the Fbg ([…], time 7 day) was 234.8 mg/dL and the Hb ([…], time 7 day) was 13.6 g/dL. It also gave a Ht ([…], time 7 day) of 40.6%, a Lym ([…], time 7 day) of 84.2% and an MCH ([…], time 7 day) of 21.2 pg. The MCHC ([…], time 7 day) was 33.5%, the MCV ([…], time 7 day) was 63.2 fL and the Mono ([…], time 7 day) was 6.6%. It also gave a Neu ([…], time 7 day) of 8.8%, a PT ([…], time 7 day) of 12.2 s and a Plat ([…], time 7 day) of 121.4 x10_4/uL. It also gave an RBC ([…], time 7 day) of 641.8 x10_4/ul, a Ret ([…], time 7 day) of 6.3% and a WBC ([…], time 7 day) of 150.1 x10_2/uL. The APTT ([…], time 14 day) was 15.7 s, the Bas ([…], time 14 day) was 0% and the Eos ([…], time 14 day) was 0.8%. The Fbg ([…], time 14 day) was 221.4 mg/dL, the Hb ([…], time 14 day) was 13.9 g/dL and the Ht ([…], time 14 day) was 41.4%. For the same molecule, the Lym ([…], time 14 day) was 83.4%, the MCH ([…], time 14 day) was 19.7 pg and the MCHC ([…], time 14 day) was 33.6%. It also gave an MCV ([…], time 14 day) of 58.6 fL, a Mono ([…], time 14 day) of 4.6% and a Neu ([…], time 14 day) of 10.8%. The PT ([…], time 14 day) was 12.1 s, the Plat ([…], time 14 day) was 125.3 x10_4/uL and the RBC ([…], time 14 day) was 706.6 x10_4/ul. For the same molecule, the Ret ([…], time 14 day) was 5.1%, the WBC ([…], time 14 day) was 172.6 x10_2/uL and the APTT ([…], time 28 day) was 16.3 s. The Bas ([…], time 28 day) was 0%, the Eos ([…], time 28 day) was 1.4% and the Fbg ([…], time 28 day) was 227.4 mg/dL. The Hb ([…], time 28 day) was 14.4 g/dL, the Ht ([…], time 28 day) was 42.8% and the Lym ([…], time 28 day) was 80.6%. For the same molecule, the MCH ([…], time 28 day) was 18.6 pg, the MCHC ([…], time 28 day) was 33.8% and the MCV ([…], time 28 day) was 55 fL. It also gave a Mono ([…], time 28 day) of 3.6%, a Neu ([…], time 28 day) of 14.4% and a PT ([…], time 28 day) of 12.2 s. It also gave a Plat ([…], time 28 day) of 119.2 x10_4/uL, an RBC ([…], time 28 day) of 780 x10_4/ul and a Ret ([…], time 28 day) of 2.9%. The WBC ([…], time 28 day) was 151.6 x10_2/uL, the KIDNEY_L ([…], time 7 day) was 1.1 g and the KIDNEY_R ([…], time 7 day) was 1.1 g. The KIDNEY_TOTAL ([…], time 7 day) was 2.2 g, the KIDNEY_L ([…], time 14 day) was 1.2 g and the KIDNEY_R ([…], time 14 day) was 1.2 g. For the same molecule, the KIDNEY_TOTAL ([…], time 14 day) was 2.5 g, the KIDNEY_L ([…], time 28 day) was 1.4 g and the KIDNEY_R ([…], time 28 day) was 1.5 g. The KIDNEY_TOTAL ([…], time 28 day) was 2.9 g, the LIVER ([…], time 7 day) was 11.5 g and the LIVER ([…], time 14 day) was 12.7 g. The LIVER ([…], time 28 day) was 15.3 g, the A/G ([…], time 7 day) was 1.6 and the ALP ([…], time 7 day) was 823.2 IU/L. It also gave an ALT ([…], time 7 day) of 15.4 IU/L, an AST ([…], time 7 day) of 56.6 IU/L and a BUN ([…], time 7 day) of 18.4 mg/dL. The CRE ([…], time 7 day) was 0.5 mg/dL, the Ca ([…], time 7 day) was 10.3 mg/dL and the Cl ([…], time 7 day) was 105.4 meq/L. It also gave a DBIL ([…], time 7 day) of 0.052 mg/dL, a GLC ([…], time 7 day) of 215.4 mg/dL and an IP ([…], time 7 day) of 8.4 mg/dL. The K ([…], time 7 day) was 4.9 meq/L, the LDH ([…], time 7 day) was 92.2 IU/L and the Na ([…], time 7 day) was 139.4 meq/L. The PL ([…], time 7 day) was 134.8 mg/dL, the RALB ([…], time 7 day) was 3.6 g/dL and the TBIL ([…], time 7 day) was 0.3 mg/dL. It also gave a TC ([…], time 7 day) of 70.4 mg/dL, a TG ([…], time 7 day) of 91.6 mg/dL and a TP ([…], time 7 day) of 5.9 g/dL. It also gave a gamma-GTP ([…], time 7 day) of 1 IU/L, an A/G ([…], time 14 day) of 1.7 and an ALP ([…], time 14 day) of 722 IU/L. The ALT ([…], time 14 day) was 11.8 IU/L, the AST ([…], time 14 day) was 53.4 IU/L and the BUN ([…], time 14 day) was 19.6 mg/dL. It also gave a CRE ([…], time 14 day) of 0.5 mg/dL, a Ca ([…], time 14 day) of 10.4 mg/dL and a Cl ([…], time 14 day) of 106 meq/L. The DBIL ([…], time 14 day) was 0.04 mg/dL, the GLC ([…], time 14 day) was 217.2 mg/dL and the IP ([…], time 14 day) was 8 mg/dL. It also gave a K ([…], time 14 day) of 5.1 meq/L, an LDH ([…], time 14 day) of 92 IU/L and a Na ([…], time 14 day) of 138.6 meq/L. It also gave a PL ([…], time 14 day) of 140.4 mg/dL, an RALB ([…], time 14 day) of 3.8 g/dL and a TBIL ([…], time 14 day) of 0.4 mg/dL. For the same molecule, the TC ([…], time 14 day) was 70 mg/dL, the TG ([…], time 14 day) was 94.8 mg/dL and the TP ([…], time 14 day) was 6.1 g/dL. It also gave a gamma-GTP ([…], time 14 day) of 1 IU/L, an A/G ([…], time 28 day) of 1.4 and an ALP ([…], time 28 day) of 589.6 IU/L. The ALT ([…], time 28 day) was 11.6 IU/L, the AST ([…], time 28 day) was 55.2 IU/L and the BUN ([…], time 28 day) was 20.2 mg/dL. The CRE ([…], time 28 day) was 0.5 mg/dL, the Ca ([…], time 28 day) was 10 mg/dL and the Cl ([…], time 28 day) was 104.6 meq/L. For the same molecule, the DBIL ([…], time 28 day) was 0.024 mg/dL, the GLC ([…], time 28 day) was 222.6 mg/dL and the IP ([…], time 28 day) was 6.9 mg/dL. It also gave a K ([…], time 28 day) of 4.5 meq/L, an LDH ([…], time 28 day) of 75.8 IU/L and a Na ([…], time 28 day) of 140.6 meq/L. For the same molecule, the PL ([…], time 28 day) was 141.8 mg/dL, the RALB ([…], time 28 day) was 3.6 g/dL and the TBIL ([…], time 28 day) was 0.2 mg/dL. It also gave a TC ([…], time 28 day) of 68.6 mg/dL, a TG ([…], time 28 day) of 105.4 mg/dL and a TP ([…], time 28 day) of 6.2 g/dL. It also gave a gamma-GTP ([…], time 28 day) of 1 IU/L.
